According to patent US11279733B2, “Peptide antibiotics” (priority 2017, dated 2022):
≈ marks a conversion by molar mass, not a printed value. Like-named read-outs stand apart in the source and are kept apart here. Positions of bridges follow the written chain, without caps; N, C: chain ends. Non-standard residues stand in square brackets, D forms with d. Residues, ends and D or L forms follow the SMILES beside them. *: point of attachment. Decanoyl(3R-OH) = CCCCCCC[C@@H](O)CC(=O)*; 1Nal = N[C@@H](Cc1cccc2ccccc12)C(=O)O; Igl = N[C@H](C(=O)O)C1Cc2ccccc2C1; hPhe = N[C@@H](CCc1ccccc1)C(=O)O; dDab = NCC[C@@H](N)C(=O)O; dDap = NC[C@@H](N)C(=O)O; Dab = NCC[C@H](N)C(=O)O

Columns and labels:
A. baumannii ATCC 19606 = details: ATCC 19606
Method in brief: (§1)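 Mid-log cultures grown in Mueller Hinton broth at 37° C were tested by 2-fold broth microdilution at 5×10^5 CFU/mL final. Compounds were dissolved in water and tested over a final range of 32 to 0.015 μg/mL.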

A. baumannii GN_093 PmxR = details: GN 093 PmxR
Method in brief: as §1

E. coli ATCC 25922 = details: ATCC 25922
Method in brief: as §1

K. pneumoniae ATCC 13883 = details: ATCC 13883
Method in brief: as §1

[1] = tested on: K. pneumoniae ATCC 700603, MDR; details: ATCC 700603
Method in brief: as §1

[2] = tested on: K. pneumoniae ATCC BAA-2146, NDM-1 pos; details: ATCC BAA-2146
Method in brief: as §1

[3] = tested on: K. pneumoniae GN_102 PmxR; details: GN 102 PmxR
Method in brief: as §1

[4] = tested on: K. pneumoniae GN_106, PmxR; details: GN 106, PmxR
Method in brief: as §1

P. aeruginosa ATCC 27853 = details: ATCC 27853
Method in brief: as §1

[5] = tested on: P. aeruginosa GN_043, PmxR
Method in brief: as §1

[6] = tested on: P. aeruginosa GN_105, PmxR; details: GN 105, PmxR
Method in brief: as §1

[7] = tested on: S. aureus ATCC 25923, MSSA; details: ATCC 25923
Method in brief: as §1

in vitro [8] = details: human
Method in brief: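 HK2 cells were seeded at 2000 per well in DMEM/F12 with 10% FBS and left to attach for 24 h at 37 °C, 5% CO2. They were then exposed for 24 h to 3-fold peptide dilutions starting from 600 μM solutions in quadruplicate. LDH release was read at 450 nm, and CC50 was fitted from dose-response curves.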

Neisseria gonorrhoeae = experiment: MIC determination, Neisseria gonorrhoeae; format: cell-based; details: for MIC N. gonorrhoeae FA19 ATCC BAA-1838: strain FA19 ATCC BAA-1838
Protocol: Bacteria were either obtained from American Type Culture Collection (ATCC; Manassas, Va., USA) or independent academic clinical isolate collections, as listed in Table 18 below. Bacteria were cultured in Nutrient broth (NB; Bacto Laboratories, catalogue No. 234000) or Mueller Hinton broth (MHB; Bacto Laboratories, catalogue No. 211443) at 37° C. overnight with shaking (˜180 RPM). A sample of each culture was then diluted 50-fold in fresh MHB and incubated at 37° C. for 2-3 h with shaking (˜180 RPM). Compound stock solutions were prepared as 0.64 mg/mL or 2.56 mg/mL in water. The compounds, at twice the final desired concentration, were serially diluted 2-fold across the wells of 96-well plates (Polystyrene, Corning, catalogue No. 3370). Mid-log phase bacterial cultures (after 2-3 h incubation) were diluted to a final concentration of 1×10^6 colony forming units (CFU)/mL, and 50 μL was added to each well giving a final cell density of 5×10^5 and a compound concentration range of 32 μg/mL to 0.015 μg/mL (128-0.06 μg/mL against P. aeruginosa PA9704).

in vitro [9] = details: human; remark: listed apart in the source
Method in brief: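 Fluorescence read-out (excitation 560, emission 590) after a 2 h, 37 °C incubation with 5 μM resazurin, following 24 h compound treatment of cells plated at 4000 per well. CC50 values come from fitting dose–response curves of growth inhibition.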

| Compound | MIC A. baumannii ATCC 19606 (A. baumannii ATCC 19606) [µg/mL] | MIC A. baumannii GN_093 PmxR (A. baumannii GN_093 PmxR) [µg/mL] | MIC E. coli ATCC 25922 (E. coli ATCC 25922) [µg/mL] | MIC K. pneumoniae ATCC 13883 (K. pneumoniae ATCC 13883) [µg/mL] | MIC K. pneumoniae ATCC 700603, MDR [1] [µg/mL] | MIC K. pneumoniae ATCC BAA-2146, NDM-1 pos [2] [µg/mL] | MIC K. pneumoniae GN_102 PmxR [3] [µg/mL] | MIC K. pneumoniae GN_106, PmxR [4] [µg/mL] | MIC P. aeruginosa ATCC 27853 (P. aeruginosa ATCC 27853) [µg/mL] | MIC P. aeruginosa GN_043, PmxR ([5]; P. aeruginosa GN_043, PmxR) [µg/mL] | MIC P. aeruginosa GN_105, PmxR [6] [µg/mL] | MIC S. aureus ATCC 25923, MSSA [7] [µg/mL] | CC50 at 24 h (in vitro [8]) [µM] | MIC P. aeruginosa GN_043, PmxR ([5]; polymyxin-resistant) [µg/mL] | MIC N. gonorrhoeae FA19 ATCC BAA-1838 (Neisseria gonorrhoeae) [µg/mL] | CC50 at 24 h (in vitro [9]) [µM] | MIC N. gonorrhoeae F89 (Neisseria gonorrhoeae; strain F89) [µg/mL] | MIC N. gonorrhoeae FA1090 A25 ATCC 700825 (Neisseria gonorrhoeae; strain FA1090 A25 ATCC 700825) [µg/mL] | MIC N. gonorrhoeae H041 (Neisseria gonorrhoeae; strain H041) [µg/mL] |
| --- | --- | --- | --- | --- | --- | --- | --- | --- | --- | --- | --- | --- | --- | --- | --- | --- | --- | --- | --- |
| CCCCCCC[C@@H](O)CC(=O)N[C@H](CCN)C(=O)N[C@H]1CCNC(=O)[C@H]([C@@H](C)O)NC(=O)[C@H](CCN)NC(=O)[C@H](CCNC(=O)[C@@H](N)CCCNC(=N)N)NC(=O)[C@H](CC(C)C)NC(=O)[C@@H](Cc2ccccc2)NC(=O)[C@H](CCN)NC1=O [compound 6656, 3(R)OH-nC9CO-D-Dab-cyc[L-Dab-L-Dab-D-Phe-L-Leu-L-Dab(L-Arg)-L-Dab-L-Thr]] ({Decanoyl(3R-OH)}-[dDab][Dab][Dab][dF]L[Dab](Arg)[Dab]T; lactam 2-C) | 16 (≈ 13.5 µM) | >32 | 2 (≈ 1.68 µM) | >32 | 4 (≈ 3.37 µM) | >32 | >32 | >32 | 2 (≈ 1.68 µM) | 8 (≈ 6.73 µM) | 16 (≈ 13.5 µM) | >32 | > 300 |  |  |  |  |  |  |
| CCCCCCC[C@@H](O)CC(=O)N[C@H](CCN)C(=O)N[C@H]1CCNC(=O)[C@H]([C@@H](C)O)NC(=O)[C@H](CCN)NC(=O)[C@H](CCN)NC(=O)[C@H](CC(C)C)NC(=O)[C@@H](Cc2ccccc2)NC(=O)[C@H](CCNC(=O)[C@@H](N)CCCNC(=N)N)NC1=O [compound 6657, 3(R)OH-nC9CO-D-Dab-cyc[L-Dab-L-Dab(L-Arg)-D-Phe-L-Leu-L-Dab-L-Dab-L-Thr]] ({Decanoyl(3R-OH)}-[dDab][Dab][Dab](Arg)[dF]L[Dab][Dab]T; lactam 2-C) | >32 | >32 | >32 | >32 | >32 | >32 | >32 | >32 | 16 (≈ 13.5 µM) | >32 | >32 | >32 | > 300 |  |  |  |  |  |  |
| CCCCCCC[C@@H](O)CC(=O)N[C@H](CCN)C(=O)N[C@H]1CCNC(=O)[C@H](Cc2c[nH]c3ccccc23)NC(=O)[C@H](CCN)NC(=O)[C@H](CCN)NC(=O)[C@H](C2Cc3ccccc3C2)NC(=O)[C@@H](Cc2ccccc2)NC(=O)[C@H](CCN)NC1=O [compound 8103, 3(R)OH-nC9CO-D-Dab-cyc[L-Dab-L-Dab-L-Dab-D-Phe-L-indanylgly-L-Dab-L-Dab-L-Trp]] ({Decanoyl(3R-OH)}-[dDab][Dab][Dab][dF][Igl][Dab][Dab]W; lactam 2-C) | 4 (≈ 3.4 µM) | 4 (≈ 3.4 µM) | 2 (≈ 1.7 µM) | 4 (≈ 3.4 µM) | 2 (≈ 1.7 µM) | 4 (≈ 3.4 µM) | 4 (≈ 3.4 µM) | 4 (≈ 3.4 µM) | 4 (≈ 3.4 µM) |  | 2 (≈ 1.7 µM) | 2 (≈ 1.7 µM) |  | 2 (≈ 1.7 µM) | 0.2 (≈ 0.17 µM) |  |  |  |  |
| CCCCCCC[C@@H](O)CC(=O)N[C@H](CN)C(=O)N[C@H]1CCNC(=O)[C@H](Cc2c[nH]c3ccccc23)NC(=O)[C@H](CCN)NC(=O)[C@H](CCN)NC(=O)[C@H](CC(C)C)NC(=O)[C@@H](Cc2ccccc2)NC(=O)[C@H](CCN)NC1=O [compound 8886, 3(R)OH-nC9CO-D-Dap-cyc[L-Dab-L-Dab-D-Phe-L-Leu-L-Dab-L-Dab-L-Trp]] ({Decanoyl(3R-OH)}-[dDap][Dab][Dab][dF]L[Dab][Dab]W; lactam 2-C) | 8 (≈ 7.25 µM) | 8 (≈ 7.25 µM) | 2 (≈ 1.81 µM) | 4 (≈ 3.63 µM) | 4 (≈ 3.63 µM) | 4 (≈ 3.63 µM) | 4 (≈ 3.63 µM) | 4 (≈ 3.63 µM) | 2 (≈ 1.81 µM) |  | 1 (≈ 0.906 µM) | 4 (≈ 3.63 µM) |  | 2 (≈ 1.81 µM) | 0.39 (≈ 0.353 µM) | 95 | 1.04 (≈ 0.943 µM) | 0.91 (≈ 0.825 µM) | 1.04 (≈ 0.943 µM) |
| CCCCCCC[C@@H](O)CC(=O)N[C@H](CCN)C(=O)N[C@H]1CCNC(=O)[C@H](Cc2cccc3ccccc23)NC(=O)[C@H](CCN)NC(=O)[C@H](CCN)NC(=O)[C@H](CC(C)C)NC(=O)[C@@H](Cc2ccccc2)NC(=O)[C@H](CCN)NC1=O [compound 8909, 3(R)OH-nC9CO-D-Dab-cyc[L-Dab-L-Dab-D-Phe-L-Leu-L-Dab-L-Dab-L-Ala(1Naphthyl)]] ({Decanoyl(3R-OH)}-[dDab][Dab][Dab][dF]L[Dab][Dab][1Nal]; lactam 2-C) | 4 (≈ 3.54 µM) | 4 (≈ 3.54 µM) | 2 (≈ 1.77 µM) | 2 (≈ 1.77 µM) | 2 (≈ 1.77 µM) | 4 (≈ 3.54 µM) | 4 (≈ 3.54 µM) | 4 (≈ 3.54 µM) | 2 (≈ 1.77 µM) |  | 2 (≈ 1.77 µM) | 2 (≈ 1.77 µM) |  | 4 (≈ 3.54 µM) | 0.78 (≈ 0.691 µM) | 26 |  |  |  |
| CCCCCCC[C@@H](O)CC(=O)N[C@H](CCN)C(=O)N[C@H]1CCNC(=O)[C@H](C2Cc3ccccc3C2)NC(=O)[C@H](CCN)NC(=O)[C@H](CCN)NC(=O)[C@H](CC(C)C)NC(=O)[C@@H](Cc2ccccc2)NC(=O)[C@H](CCN)NC1=O [compound 8912, 3(R)OH-nC9CO-D-Dab-cyc[L-Dab-L-Dab-D-Phe-L-Leu-L-Dab-L-Dab-L-indanylgly]] ({Decanoyl(3R-OH)}-[dDab][Dab][Dab][dF]L[Dab][Dab][Igl]; lactam 2-C) | 4 (≈ 3.62 µM) | 4 (≈ 3.62 µM) | 2 (≈ 1.81 µM) | 2 (≈ 1.81 µM) | 4 (≈ 3.62 µM) | 4 (≈ 3.62 µM) | 2 (≈ 1.81 µM) | 2 (≈ 1.81 µM) | 2 (≈ 1.81 µM) |  | 2 (≈ 1.81 µM) | 2 (≈ 1.81 µM) |  | 2 (≈ 1.81 µM) | 0.78 (≈ 0.706 µM) | 28 |  |  |  |
| CCCCCCC[C@@H](O)CC(=O)N[C@H](CCN)C(=O)N[C@H]1CCNC(=O)[C@H](CCc2ccccc2)NC(=O)[C@H](CCN)NC(=O)[C@H](CCN)NC(=O)[C@H](CC(C)C)NC(=O)[C@@H](Cc2ccccc2)NC(=O)[C@H](CCN)NC1=O [compound 8913, 3(R)OH-nC9CO-D-Dab-cyc[L-Dab-L-Dab-D-Phe-L-Leu-L-Dab-L-Dab-L-hPhe]] ({Decanoyl(3R-OH)}-[dDab][Dab][Dab][dF]L[Dab][Dab][hPhe]; lactam 2-C) | 8 (≈ 7.32 µM) | 4 (≈ 3.66 µM) | 2 (≈ 1.83 µM) | 4 (≈ 3.66 µM) | 4 (≈ 3.66 µM) | 4 (≈ 3.66 µM) | 2 (≈ 1.83 µM) | 2 (≈ 1.83 µM) | 2 (≈ 1.83 µM) |  | 2 (≈ 1.83 µM) | 4 (≈ 3.66 µM) |  | 4 (≈ 3.66 µM) | 1.56 (≈ 1.43 µM) | 32 |  |  |  |
